Reference: patent US9504755B2, “Multi-arm polymeric alkanoate conjugates” (Nektar Therapeutics, priority 2008, dated 2016)
Marks after values point to notes of the source that are not given here.

Experiments:
H460 tumors = experiment: Anti-tumor activity in H460 non-small cell lung mouse xenograft model; assay type: in vivo
Protocol: H460, LS174T and LoVo tumors were established in female athymic nude mice. Groups of 10 mice received a total of three single doses of 4-ARM-PEG20K-BA-DOC or docetaxel administered every 7 days (q7d×3) at several doses up to a maximum tolerated dose (MTD). Control groups received no treatment after tumor implant. Animals were weighed daily for the first five days and twice weekly thereafter. Tumor volumes were measured twice weekly after the first drug injection.
Anti-tumor activity was measured as changes in tumor volume, time to reach endpoint, and complete or partial tumor regression.
Treatment outcome was evaluated by Tumor Growth Delay (TGD), which is defined as the increase in median time to endpoint in a treatment group compared to the control group. Here it is expressed as % TGD, as a percentage to the median time to endpoint of the control group.
A tumor whose volume was reduced to 50% or less for three consecutive measurements compared to its volume on Day 1 was considered to be in partial regression. Complete regression was defined as volume […] 13.5 mm^3 for three consecutive measurements.
Acceptable toxicity was defined as a group mean body weight (BW) loss of less than 20% during the study and not more than one treatment-related death among ten treated animals.

[1] = Plasma and tumor pharmacokinetics in H460 tumor-bearing nude mice; assay type: in vivo, mouse; settings: female, HRLN nude, mouse, in vivo, iv
Protocol: To assess whether the improved antitumor activity was due to greater plasma and tumor docetaxel exposure following 4-ARM-PEG20K-BA-DOC administration, plasma and tumor homogenates were analyzed after a single IV administration of 4-ARM-PEG20K-BA-DOC or docetaxel in mice bearing H460 tumors. In looking at each of 4-ARM-PEG20K-BA-DOC and docetaxel dosed at their respective maximum tolerated doses (MTDs) of 33 and 25 mg/kg, the following was observed. […] The maximum plasma docetaxel concentration with 4-ARM-PEG20K-BA-DOC was 13-fold lower than that with docetaxel.
The objective of this study was to compare docetaxel pharmacokinetics following 4-ARM-PEG20K-BA-docetaxel with that following docetaxel administration, in plasma and tumor tissue of athymic female mice bearing H460 NSCLC tumors and to determine the effects on complete blood counts. This example summarizes the pharmacokinetic results.
H460 tumor cells were grown in vitro and implanted subcutaneously into female HRLN nude mice. When tumor sizes reached between 172 and 288 mg, animals were dosed by intravenous bolus injection with 25 mg/kg docetaxel or 33 mg/kg 4-ARM-PEG20K-BA-docetaxel at a dosing volume of 10 mL/kg. These dose levels correspond to the maximum tolerated doses for docetaxel and 4-ARM-PEG20K-BA-docetaxel administered on a q7d×3 schedule in this tumor model. Blood and tumor samples (n=7 timepoints with n=3/timepoint) were collected from 0 to 7 days after IV injection. Plasma and tumor samples were analyzed for docetaxel and 4-ARM-PEG20K-BA-docetaxel.

[2] = Pharmacokinetics after IV infusion in Beagle dogs; assay type: in vivo, dog; settings: Beagle, dog, plasma, male dogs, single IV dose 0.75 mg/kg
Protocol: The objective of the study was to assess the pharmacokinetics and excretion of docetaxel and 4-ARM-PEG20K-BA-docetaxel after intravenous infusion to dogs.
Pharmacokinetics were evaluated in male dogs (4 dogs/dose level) dosed with 0, 0.75, 2, or 4 mg/kg (0, 15, 40, and 80 mg/m^2/dose) of 4-ARM-PEG20K-BA-docetaxel or 0.75 mg/kg (15 mg/m^2) docetaxel. 4-ARM-PEG20K-BA-docetaxel and docetaxel were administered via a cephalic or saphenous vein disposable catheter as 60-min intravenous infusions at 4 mL/kg/hr. Seventeen blood samples were obtained by jugular venipuncture or Abbacoth IV catheter between 0 and 168 hr post-dose. Plasma concentrations of 4-ARM-PEG20K-BA-docetaxel and docetaxel were determined.

[3] = 18.7 mg/kg (56.1 mg/m^2), q7d×3
[4] = 25 mg/kg (75 mg/m^2), q7d×3 (MTD of docetaxel)
[5] = 25 mg/kg, analyte docetaxel, tumor

CC(=O)O[C@@]12CO[C@@H]1C[C@H](O)[C@@]1(C)C(=O)[C@H](O)C3=C(C)[C@@H](OC(=O)[C@H](O)[C@@H](NC(=O)OC(C)(C)C)c4ccccc4)C[C@@](O)([C@@H](OC(=O)c4ccccc4)[C@H]21)C3(C)C [Docetaxel, reference compound]
BW Loss (%) (H460 tumors; 10 mg/kg (30 mg/m^2), q7d×3): 0/0% | No. Surviving/No. Treated Mice (H460 tumors; 10 mg/kg (30 mg/m^2), q7d×3): 10/10 | TGD (%) (H460 tumors; 10 mg/kg (30 mg/m^2), q7d×3): −2% | BW Loss (%) (H460 tumors; 14 mg/kg (42 mg/m^2), q7d×3): 4.1% | Day of BW Nadir (H460 tumors; 14 mg/kg (42 mg/m^2), q7d×3): 19 | No. Surviving/No. Treated Mice (H460 tumors; 14 mg/kg (42 mg/m^2), q7d×3): 10/10 | TGD (%) (H460 tumors; 14 mg/kg (42 mg/m^2), q7d×3): 4% | BW Loss (%) (H460 tumors; [3]): 9.7% | Day of BW Nadir (H460 tumors; [3]): 22 | No. Surviving/No. Treated Mice (H460 tumors; [3]): 10/10 | TGD (%) (H460 tumors; [3]): 23% | Day of BW Nadir (H460 tumors; 25 mg/kg (75 mg/m^2), q7d×3): 26 | No. Surviving/No. Treated Mice (H460 tumors; 25 mg/kg (75 mg/m^2), q7d×3): 10/10 | BW Loss (%) (H460 tumors; [4]): 15.5% | TGD (%) (H460 tumors; [4]): 48% | TGD (%) (H460 tumors; 25 mg/kg (75 mg/m^2), q7d×3 (MTD of docetaxel), listed as docetaxel): 48% | antitumor activity below MTD (H460 tumors; 4-ARM-PEG20K-BA-DOC at 19 mg/kg (58% of its MTD), docetaxel doses less than 25 mg/kg): did not | concentration at 72 hr ([1]; 25 mg/kg): < 1 ng/mL | AUC(0-t) ([1]; 25 mg/kg, AUClast, analyte docetaxel, tumor): 139000 ng·h/mL | Cmax ([1]; 25 mg/kg, analyte docetaxel, plasma): 2570 ng/mL | Cmax [1, 5]: 2340 ng/mL | Tmax [1, 5]: 240 min | Tmax ([1]; analyte docetaxel, plasma): 30 min | Tmax ([1]; analyte docetaxel, tumor): ≤ 240 min | AUC(0-t) ([2]; read-out: AUClast, analyte docetaxel): 479 ng·h/mL | Cmax ([2]; read-out: Cmax, analyte docetaxel): 223 ng/mL | Tmax ([2]; read-out: Tmax, analyte docetaxel): 52.8 min
